Test results from ChEMBL document CHEMBL1146410, “Bioactive Terpenoids from Octocorallia. 4. Three New Cembrane-Type Diterpenoids from the Soft Coral Lobophytum schoedei” (J Nat Prod, 1997).

Assays:
Type in all cases: organism-based
[1] = Toxicity in Artemia salina larvae at 30 ppm; details: in vivo, read-out: Activity
[2] = tested on: Oryzias latipes; experiment: Ichthyotoxicity in Oryzias latipes; details: in vivo
[3] = tested on: Oryzias latipes; experiment: Toxicity in Oryzias latipes; details: in vivo

SMILES	mortality at 30 ppm [1] [%]	LC100 [2] [ppm]	LC50 [3] [ppm]
CC(=O)OCC1=C\CC/C(C)=C/CC[C@@]2(C)CC[C@@](C(C)C)(\C=C\1)O2 [LOBOPHYNIN A]	20		
CC(=O)OCC1=C2CC/C(C)=C/CC[C@@]3(C)O[C@@H]3CC/C(C)=C/[C@H]2OC1 [LOBOPHYNIN B]	25		
COC(=O)/C1=C/CC/C(C)=C/[C@@H]2OCC(C)=C2CC[C@@]2(C)O[C@@H]2CC1 [LOBOPHYNIN C]		30	22.5
